Reference: patent US20250144067A1, “PERSONALIZED STARVATION THERAPY FOR CANCER” (Faeth Therapeutics, Inc., priority 2021, published 2025)
Structures can show the parent of a compound that is named as a salt. Where two headings read alike, the source gives them in different places.

Key:
[1] = tested on: NCI-H292 lung cancer cells; assay: FDA drug screening, complete media vs cholesterol-free media without statin (TABLE 1); type: cell-based, human
[2] = tested on: NCI-H292 lung cancer cells; assay: FDA drug screening, complete media vs cholesterol-free media with simvastatin (TABLE 2); type: cell-based, human
[3] = Complete minus Cholesterol-free, greater than 0 enhanced anti-cancer activity, about 0 neutral, below 0 antagonist
[4] = NCI-H292 cells, FDA drug library screen, cholesterol-free media without statin
[5] = NCI-H292 cells, FDA drug library screen, complete media
[6] = NCI-H292 cells, cholesterol-free media with simvastatin 0.04 μM, cell growth value in FDA drug screen
[7] = NCI-H292 cells, complete media, cell growth value in FDA drug screen
[8] = complete media minus cholesterol-free media + simvastatin, >0 enhanced anti-cancer activity, about 0 neutral, <0 antagonist
[9] = NCI-H292 cells, cholesterol-free media without statin, FDA drug library screen
[10] = NCI-H292 cells, complete media, FDA drug library screen
[11] = complete vs cholesterol-free media, >0 enhanced anti-cancer activity, about 0 neutral, <0 antagonist
[12] = NCI-H292 cells, cholesterol-free media with simvastatin 0.04 μM, FDA drug library screen (TABLE 2)
[13] = NCI-H292 cells, complete media, FDA drug library screen (TABLE 2)
[14] = complete media minus cholesterol-free media + simvastatin (0.04 μM), >0 enhanced anti-cancer activity, about 0 neutral, <0 antagonist
[15] = Complete minus Cholesterol-free, >0 enhanced anti-cancer activity, about 0 neutral, <0 antagonist
[16] = NCI-H292 cells, cholesterol-free media without statin
[17] = NCI-H292 cells, drug in cholesterol-free media with simvastatin 0.04 μM
[18] = NCI-H292 cells, drug in complete media
[19] = complete media vs cholesterol-free media + simvastatin (0.04 μM), >0 enhanced anti-cancer activity, about 0 neutral, <0 antagonist
[20] = complete vs cholesterol-free media, greater than 0 enhanced anti-cancer activity, about 0 neutral, below 0 antagonists
[21] = NCI-H292 cells, FDA drug library screen, cholesterol-free media with simvastatin 0.04 μM

**Q.** What does the source list for CCCCCCOC(=O)N=C(N)c1ccc(NCc2nc3cc(C(=O)N(CCC(=O)OCC)c4ccccn4)ccc3n2C)cc1 [Dabigatran etexilate]?
**A.** Difference [1, 3]: −0.09; Cholesterol-free [1, 4]: 0.9682; Complete [1, 5]: 0.8738; Cholesterol-free media + simvastatin (0.04 μM) [2, 6]: 0.8555; Complete Media [2, 7]: 0.8818; Difference [2, 8]: 0.03

**Q.** How did the Cholesterol-free [1] turn out when CC1(C)C[C@@H]1C(=O)N/C(=C\CCCCSC[C@H](N)C(=O)O)C(=O)O [Cilastatin] was run?
**A.** Its Cholesterol-free is 1.185.

**Q.** And the Complete [1]?
**A.** Its Complete is 0.8515.

**Q.** And the Difference [1]?
**A.** The Difference was −0.33.

**Q.** And the “Cholesterol-free media + simvastatin (0.04 μM)” value [2]?
**A.** Its value is 1.258.

**Q.** What about the “Complete Media” value [2] of the same compound?
**A.** The value was 0.85.

**Q.** What about the Difference [2] of the same compound?
**A.** The Difference was −0.41.

**Q.** Which Cholesterol-free [1, 9] does the source give for C=CC(N)CCC(=O)O (stereo not drawn) [Vigabatrin] here?
**A.** Its Cholesterol-free is 0.7255.

**Q.** What about the Complete [1, 10] of the same compound?
**A.** The Complete was 1.221.

**Q.** And the Difference [1, 11]?
**A.** The Difference was 0.50.

**Q.** And the “Cholesterol-free media + simvastatin (0.04 μM)” value [2, 12]?
**A.** The value was 0.8099.

**Q.** What about the “Complete Media” value [2, 13] of the same compound?
**A.** The value was 0.7743.

**Q.** And the Difference [2, 14]?
**A.** The Difference was −0.04.

**Q.** Which Cholesterol-free [1, 9] does the source give for COc1cc(C=O)ccc1O [Vanillin] here?
**A.** The Cholesterol-free was 0.7241.

**Q.** What about the Complete [1, 10] of the same compound?
**A.** The Complete was 0.863.

**Q.** What about the Difference [1, 11] of the same compound?
**A.** Its Difference is 0.14.

**Q.** And the “Cholesterol-free media + simvastatin (0.04 μM)” value [2, 12]?
**A.** Its value is 1.042.

**Q.** And the “Complete Media” value [2, 13]?
**A.** Its value is 1.057.

**Q.** What about the Difference [2, 14] of the same compound?
**A.** The Difference was 0.02.

**Q.** With CCCN(CCC)C(=O)C(CCC(=O)O)NC(=O)c1ccccc1 (stereo not drawn) [Proglumide (sodium)] as the compound, how does the Difference [1, 15] read?
**A.** Its Difference is −0.28.

**Q.** What about the Cholesterol-free [1, 16] of the same compound?
**A.** Its Cholesterol-free is 1.258.

**Q.** What about the Complete ([1]; NCI-H292 cells, complete media) of the same compound?
**A.** Its Complete is 0.9781.

**Q.** What about the “Cholesterol-free media + simvastatin (0.04 μM)” value [2, 17] of the same compound?
**A.** Its value is 1.215.

**Q.** What about the “Complete Media” value [2, 18] of the same compound?
**A.** The value was 0.9616.

**Q.** And the Difference [2, 19]?
**A.** The Difference was −0.25.

**Q.** What does the source list for Cn1c(=O)c2[nH]c(Br)nc2n(C)c1=O [Pamabrom]?
**A.** Difference [1, 3]: −0.16; Cholesterol-free [1, 4]: 0.9285; Complete [1, 5]: 0.7717; Cholesterol-free media + simvastatin (0.04 μM) [2, 6]: 0.9207; Complete Media [2, 7]: 0.9433; Difference [2, 8]: 0.02

**Q.** For N[C@@H](Cc1cc(I)c(Oc2cc(I)c(O)c(I)c2)c(I)c1)C(=O)O [L-Thyroxine (sodium salt pentahydrate)], which Difference [1, 3] is on record?
**A.** Its Difference is −0.15.

**Q.** And the Cholesterol-free [1, 4]?
**A.** Its Cholesterol-free is 1.238.

**Q.** What about the Complete [1, 5] of the same compound?
**A.** The Complete was 1.085.

**Q.** And the “Cholesterol-free media + simvastatin (0.04 μM)” value [2, 6]?
**A.** Its value is 0.8275.

**Q.** And the “Complete Media” value [2, 7]?
**A.** Its value is 0.8532.

**Q.** And the Difference [2, 8]?
**A.** Its Difference is 0.03.

**Q.** How did the Cholesterol-free [1] turn out when C[N+]1(CC2CC2)[C@@H]2C[C@@H](OC(=O)[C@H](CO)c3ccccc3)C[C@H]1[C@@H]1O[C@@H]12.[Br-] (stereo partly drawn) [Cimetropium (Bromide)] was run?
**A.** Its Cholesterol-free is 0.8786.

**Q.** And the Complete [1]?
**A.** Its Complete is 0.8182.

**Q.** What about the Difference [1] of the same compound?
**A.** Its Difference is −0.06.

**Q.** What about the “Cholesterol-free media + simvastatin (0.04 μM)” value [2] of the same compound?
**A.** Its value is 1.704.

**Q.** What about the “Complete Media” value [2] of the same compound?
**A.** Its value is 1.429.

**Q.** What about the Difference [2] of the same compound?
**A.** Its Difference is −0.28.

**Q.** Which results are given for CC(C)Cc1ccc([C@H](C)C(=O)O)cc1 [(S)-(+)-Ibuprofen]?
**A.** Difference [1, 15]: −0.01; Cholesterol-free [1, 9]: 1.011; Complete [1, 10]: 0.9982; Complete Media [2, 18]: 0.9605; Difference [2, 19]: −0.26

**Q.** For CCCCCOc1ccccc1/C(=C\SC)n1ccnc1 [Neticonazole (hydrochloride)], which Cholesterol-free [1, 16] is on record?
**A.** Its Cholesterol-free is 1.192.

**Q.** And the Complete ([1]; NCI-H292 cells, complete media)?
**A.** Its Complete is 0.8359.

**Q.** What about the Difference [1, 20] of the same compound?
**A.** The Difference was −0.36.

**Q.** What about the “Complete Media” value [2, 5] of the same compound?
**A.** The value was 0.9839.

**Q.** What about the Difference [2, 8] of the same compound?
**A.** The Difference was 0.45.

**Q.** For COc1ccc(OC)c(C(O)CNC(=O)CN)c1 (stereo not drawn) [Midodrine (hydrochloride)], which Cholesterol-free [1, 9] is on record?
**A.** The Cholesterol-free was 0.6607.

**Q.** What about the Complete [1, 10] of the same compound?
**A.** The Complete was 0.8643.

**Q.** And the Difference [1, 11]?
**A.** Its Difference is 0.20.

**Q.** And the “Cholesterol-free media + simvastatin (0.04 μM)” value ([2]; NCI-H292 cells, FDA library drug in cholesterol-free media with simvastatin 0.04 μM)?
**A.** Its value is 2.06.

**Q.** And the “Complete Media” value ([2]; NCI-H292 cells, FDA library drug in complete media)?
**A.** The value was 1.752.

**Q.** And the Difference [2, 19]?
**A.** Its Difference is −0.31.

**Q.** With CC1CCC(C(C)C)C(O)C1 (racemic) [DL-Menthol] as the compound, how does the Cholesterol-free [1, 16] read?
**A.** The Cholesterol-free was 1.299.

**Q.** What about the Complete ([1]; NCI-H292 cells, complete media) of the same compound?
**A.** Its Complete is 0.8907.

**Q.** What about the Difference [1, 20] of the same compound?
**A.** Its Difference is −0.41.

**Q.** And the “Cholesterol-free media + simvastatin (0.04 μM)” value [2, 21]?
**A.** Its value is 0.8922.

**Q.** And the “Complete Media” value [2, 5]?
**A.** Its value is 1.05.

**Q.** And the Difference [2, 8]?
**A.** The Difference was 0.16.

**Q.** Which results are given for CC(=O)[C@@]1(O)CC[C@H]2[C@@H]3C[C@H](C)C4=CC(=O)C=C[C@]4(C)[C@@]3(F)[C@@H](O)C[C@@]21C [Fluorometholone]?
**A.** Difference [1, 3]: −0.08; Cholesterol-free [1, 4]: 1.249; Cholesterol-free media + simvastatin (0.04 μM) [2, 17]: 0.7423; Complete Media [2, 18]: 0.5602; Difference [2, 19]: −0.18

**Q.** For CN(CCOc1ccc(CC2SC(=O)NC2=O)cc1)c1ccccn1 (stereo not drawn) [Rosiglitazone], which Difference [1, 15] is on record?
**A.** Its Difference is −0.21.

**Q.** What about the Cholesterol-free [1, 16] of the same compound?
**A.** The Cholesterol-free was 1.222.

**Q.** And the Complete ([1]; NCI-H292 cells, complete media)?
**A.** The Complete was 1.017.

**Q.** And the “Cholesterol-free media + simvastatin (0.04 μM)” value [2, 21]?
**A.** The value was 1.707.

**Q.** And the “Complete Media” value [2, 5]?
**A.** Its value is 1.955.

**Q.** What about the Difference [2, 8] of the same compound?
**A.** Its Difference is 0.25.

**Q.** With CCCCN1C[C@H](O)[C@@H](O)[C@H](O)[C@H]1CO [Miglustat (hydrochloride)] as the compound, how does the Difference ([1]; Complete minus Cholesterol-free, greater than 0 enhanced anti-cancer activity, about 0 neutral, below 0 antagonists) read?
**A.** The Difference was −0.51.

**Q.** What about the Cholesterol-free ([1]; NCI-H292 cells in cholesterol-free media without statin) of the same compound?
**A.** The Cholesterol-free was 1.836.

**Q.** And the Complete ([1]; NCI-H292 cells in complete media)?
**A.** Its Complete is 1.323.

**Q.** And the “Cholesterol-free media + simvastatin (0.04 μM)” value [2, 21]?
**A.** The value was 0.8113.

**Q.** And the “Complete Media” value [2, 5]?
**A.** Its value is 0.7082.

**Q.** What about the Difference [2, 19] of the same compound?
**A.** Its Difference is −0.10.
